Test results: ChEMBL document CHEMBL1144872, “A quantitative structure-activity relationship and pharmacophore modeling investigation of aryl-X and heterocyclic bisphosphonates as bone resorption agents” (J Med Chem, 2003)

Target: bone resorption (Rattus norvegicus)

| Compound | IC50 [µM] |
| --- | --- |
| O=P(O)(O)C(O)(CCc1cnc[nH]1)P(=O)(O)O | 0.0667 |
| CCCCN(CCCOc1ccccc1)CCC(O)(P(=O)(O)O)P(=O)(O)O | 1.17 |
| CCN(CCCOc1ccccc1)CCC(O)(P(=O)(O)O)P(=O)(O)O | 0.0721 |
| CN(CCCOc1ccccc1)CCC(O)(P(=O)(O)O)P(=O)(O)O | 0.00129 |
| O=P(O)(O)C(Cc1nccs1)P(=O)(O)O | 0.733 |
| CCCN(CCCOc1ccccc1)CCC(O)(P(=O)(O)O)P(=O)(O)O | 0.024 |
| Cc1cccc(OCCCN(C)CCC(O)(P(=O)(O)O)P(=O)(O)O)c1 | 0.00427 |
| CN(CCCSc1ccccc1)CCC(O)(P(=O)(O)O)P(=O)(O)O | 0.000618 |
| O=P(O)(O)C(Nc1ncc[nH]1)P(=O)(O)O | 1.95 |
| Cc1ncn(CC(O)(P(=O)(O)O)P(=O)(O)O)c1C | 0.005 |
| Cc1nc[nH]c1CC(O)(P(=O)(O)O)P(=O)(O)O | 0.00513 |
| O=P(O)(O)C(Nc1ncc(CCc2ccccc2)s1)P(=O)(O)O | 0.00708 |
| O=P(O)(O)C(Nc1nccs1)P(=O)(O)O | 0.0182 |
| Cc1csc(NC(P(=O)(O)O)P(=O)(O)O)n1 | 0.347 |
| O=P(O)(O)C(O)(CCNCCCSc1ccccc1)P(=O)(O)O | 0.0182 |
| O=P(O)(O)C(O)(Cn1cncn1)P(=O)(O)O | 2.2 |
| CCCc1cnc(NC(P(=O)(O)O)P(=O)(O)O)s1 | 0.00615 |
| Cn1ccnc1CC(O)(P(=O)(O)O)P(=O)(O)O | 0.00197 |
| CN(CCCc1ccccc1)CCC(O)(P(=O)(O)O)P(=O)(O)O | 0.00259 |
| CCCCc1cnc(NC(P(=O)(O)O)P(=O)(O)O)s1 | 0.00269 |
| O=P(O)(O)C(O)(CCNCCCCc1ccccc1)P(=O)(O)O | 0.00269 |
| CN(CCCSc1ccc(Cl)cc1)CCC(O)(P(=O)(O)O)P(=O)(O)O | 0.018 |

| Compound | IC50 [µM] |
| --- | --- |
| O=C(c1ccccc1)n1ccnc1CC(O)(P(=O)(O)O)P(=O)(O)O | 0.0646 |
| O=P(O)(O)C(O)(CCNCCCc1ccccc1)P(=O)(O)O | 0.0558 |
| CC(C)c1cnc(NC(P(=O)(O)O)P(=O)(O)O)s1 | 0.632 |
| CN(CCOc1ccc(Cl)cc1)CCC(O)(P(=O)(O)O)P(=O)(O)O | 0.00407 |
| CN(CCCOc1ccc(F)cc1)CCC(O)(P(=O)(O)O)P(=O)(O)O | 0.00145 |
| O=P(O)(O)C(O)(Cc1ncc[nH]1)P(=O)(O)O | 0.0178 |
| O=P(O)(O)C(Nc1nccn1Cc1ccccc1)P(=O)(O)O | 0.185 |
| CN(CCCOc1ccccc1)CCCC(O)(P(=O)(O)O)P(=O)(O)O | 0.246 |
| CN(CCc1ccccc1)CCC(O)(P(=O)(O)O)P(=O)(O)O | 0.00392 |
| CCc1cnc(NC(P(=O)(O)O)P(=O)(O)O)s1 | 0.00482 |
| CN(CCCc1ccc(Cl)cc1)CCC(O)(P(=O)(O)O)P(=O)(O)O | 0.00166 |
| COc1ccc(OCCCN(C)CCC(O)(P(=O)(O)O)P(=O)(O)O)cc1 | 0.00282 |
| Cn1ccnc1NC(P(=O)(O)O)P(=O)(O)O | 0.0185 |
| O=P(O)(O)C(O)(CCNCCCOc1ccccc1)P(=O)(O)O | 0.00325 |
| Cc1cnc(NC(P(=O)(O)O)P(=O)(O)O)s1 | 0.00513 |
| CN(CCCCCCc1ccccc1)CCC(O)(P(=O)(O)O)P(=O)(O)O | 3.63 |
| O=P(O)(O)C(O)(CCNCCc1ccccc1)P(=O)(O)O | 0.885 |
| CN(CCCCOc1ccccc1)CCC(O)(P(=O)(O)O)P(=O)(O)O | 0.0101 |
| CN(CCCCCCOc1ccccc1)CCC(O)(P(=O)(O)O)P(=O)(O)O | 17.6 |
| O=P(O)(O)C(O)(CCn1ccnc1)P(=O)(O)O | 0.157 |
| CN(CCCOc1ccc(Cl)cc1)CCC(O)(P(=O)(O)O)P(=O)(O)O | 0.00312 |
